Laboratory results as given in BindingDB's records for PubMed 34154424 (Bayer AG).

Key:
[1] = target: Tyrosine-protein kinase Fyn (Homo sapiens) (UniProt P06241); test: Inhibition of T-Fyn (unknown origin) by HTRF assay
[2] = target: Mitogen-activated protein kinase kinase kinase 7, TAK1 kinase (Homo sapiens) (UniProt O43318); test: Inhibition of Tak1 (unknown origin) in presence of ATP
[3] = target: Mitogen-activated protein kinase kinase kinase 7, TAK1 kinase (Homo sapiens) (UniProt O43318); test: Inhibition of Tak1 (unknown origin) by competition binding assay

Sequence of Mitogen-activated protein kinase kinase kinase 7, TAK1 kinase (Homo sapiens) (O43318 whole entry, looked up): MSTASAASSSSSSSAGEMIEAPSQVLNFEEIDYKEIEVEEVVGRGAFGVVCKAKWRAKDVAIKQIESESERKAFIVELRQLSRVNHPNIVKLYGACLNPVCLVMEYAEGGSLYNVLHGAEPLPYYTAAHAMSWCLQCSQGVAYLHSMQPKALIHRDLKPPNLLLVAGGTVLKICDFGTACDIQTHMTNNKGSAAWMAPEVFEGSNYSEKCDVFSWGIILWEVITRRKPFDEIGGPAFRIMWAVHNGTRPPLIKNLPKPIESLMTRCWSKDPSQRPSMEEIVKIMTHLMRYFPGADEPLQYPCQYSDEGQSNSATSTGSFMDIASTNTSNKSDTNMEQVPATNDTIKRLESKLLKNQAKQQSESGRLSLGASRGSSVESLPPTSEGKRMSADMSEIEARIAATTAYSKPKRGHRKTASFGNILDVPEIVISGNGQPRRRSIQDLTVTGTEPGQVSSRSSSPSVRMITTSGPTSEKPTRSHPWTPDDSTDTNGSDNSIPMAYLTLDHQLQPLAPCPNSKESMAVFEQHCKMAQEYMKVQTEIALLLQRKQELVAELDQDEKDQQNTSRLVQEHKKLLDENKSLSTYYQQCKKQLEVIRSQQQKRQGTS
Sequence of Tyrosine-protein kinase Fyn (Homo sapiens) (P06241 whole entry, looked up): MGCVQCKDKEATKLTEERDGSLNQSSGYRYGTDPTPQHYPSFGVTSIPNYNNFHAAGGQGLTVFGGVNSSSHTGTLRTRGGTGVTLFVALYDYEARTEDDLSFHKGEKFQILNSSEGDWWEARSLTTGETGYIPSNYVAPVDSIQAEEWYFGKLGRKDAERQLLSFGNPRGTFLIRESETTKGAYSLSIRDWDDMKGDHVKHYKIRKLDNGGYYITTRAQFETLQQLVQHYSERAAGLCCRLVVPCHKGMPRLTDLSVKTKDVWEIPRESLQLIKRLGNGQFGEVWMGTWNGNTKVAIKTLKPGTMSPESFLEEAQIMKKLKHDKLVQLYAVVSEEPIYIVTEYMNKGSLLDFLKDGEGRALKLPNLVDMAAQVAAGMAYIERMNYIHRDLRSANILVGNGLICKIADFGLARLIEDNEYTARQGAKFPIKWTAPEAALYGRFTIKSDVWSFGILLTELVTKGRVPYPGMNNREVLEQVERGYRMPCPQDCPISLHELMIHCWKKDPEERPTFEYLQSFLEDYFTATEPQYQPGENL

C[C@H]1CC(=O)Nc2cc(C(=O)NCCC3CC3)ccc2N1C(=O)N1CC2CC2C1 (stereo partly drawn)
IC50 [1]: > 5.7 nM
IC50 [2]: > 2 nM
IC50 [3]: > 2 nM
